“And” between values parts separate entries of the source, which are not always exact repeats. Equal values may be shown once. Where a name gives a salt, the structure may show the parent alone.
Columns and labels:
[1] = tested on: tacrine-induced jaw tremors in rats; test: Tacrine-induced jaw tremor behavior in rats; format: in vivo, Sprague Dawley rats; conditions: for Inhibition of tacrine-induced jaw tremors in rats: compared to the model group; for Minimum effective dose: tacrine-induced jaw tremor in rats, compared with rotigotine
Procedure: Test compounds: The free bases of Examples 28, 32, and 33 in the present invention, which were self-prepared.
Positive control compound: Rotigotine.
Molding drug: Tacrine, SIGMA, A3773-1G.
Vehicle: Normal saline, Cisen Pharmaceutical Co., Ltd., 2111060723.
Sprague Dawley rats, male, 10/group, Shanghai Slac Laboratory Animal Co., Ltd.
Drug preparation: The test compound was taken, added to the vehicle, and subjected to ultrasonication.
Administration route and method: Administration was performed by intraperitoneal injection.
Administration frequency and duration: single administration.
The rats were stratified according to body weight and then randomly divided into a model group, an administration group, and a control group. The rats were acclimatized for three days before the experiment. On the day of the experiment, the vehicle or drug was first injected intraperitoneally, followed by an intraperitoneal injection of tacrine at a dose of 5 mg/kg (body weight) after 60 min. After administration, the rats were placed in a transparent observation box, and the jaw tremor counting was started 10 min later. The continuous counting duration was 5 min, and the jaw tremor frequency in the rats within 5 min was recorded.
The experimental data were expressed as x ± SEM. Inhibition rate (%) = 100% × (jaw tremor frequency in the rats of the model group - jaw tremor frequency in the rats of the administration group)/jaw tremor frequency in the rats of the model group, where *: p < 0.05, **: p < 0.01, and ***: p < 0.001 vs vehicle.

Dopamine D2L receptor = Dopamine D2L receptor (Homo sapiens, UniProt P14416); test: In vitro dopamine D2L receptor function experiment (cAMP, forskolin-stimulated HEK293/D2L cells); conditions: for Emax: HEK293, read-out: D2L Emax
Procedure: • (1) Compound preparation: The test compounds and dopamine were diluted to a concentration of 200 nM for later use. • (2) Experimental buffer preparation: The 5× stimulation buffer was diluted to 1× with ddH2O, and IBMX was added to a final concentration of 0.5 mM. The mixture was mixed well for later use. • (3) The cells were digested with trypsin, and centrifugation was performed after the digestion was terminated. The cell pellet was resuspended in 10 mL of pre-warmed HBSS and centrifuged again. Then, 1 mL of stimulation buffer was added for resuspension, and 20 µL of the cell suspension was taken for cell counting. • (4) An appropriate amount of the cell suspension was taken and diluted to 0.4 × 10^6 cells/mL, and 5 µL of the diluted cell suspension was added to each well of a cell plate and centrifuged at 1000 rpm for 1 min. • (5) Compound dilution and transfer using bravo: The compounds were diluted 4-fold to obtain 8 concentration points in the compound plate. The diluted compounds in the whole plate were then transferred to a 384-well white plate using bravo and centrifuged at 1000 rpm for 1 min. • (6) The experimental plate was sealed and incubated at room temperature for 15 min. • (7) Forskolin, prepared with DMSO, was added at 25.1 nL/well using Tecan D300e, with a mother liquor concentration of 0.2 mM and a final concentration of 0.25 µM, followed by centrifugation at 1000 rpm for 1 min. • (8) The plate was sealed and incubated at room temperature for 45 min. • (9) cAMP standard curve preparation: A 4-fold serial dilution was performed to obtain 8 concentration points from a starting concentration of 2848 nM. Then, 10 µL of each dilution was taken and added to the experimental plate, with a maximum concentration of 712 nM. • (10) 5 µL of cAMP-d2 solution (stock solution diluted at 1:20 with lysis buffer) was added to the experimental plate, and the plate was centrifuged at 1000 rpm for 1 min. • (11) Then, 5 µL of Anti-cAMP-Cryptate solution (stock solution diluted at 1:20 with lysis buffer) was added to the experimental plate, and the plate was centrifuged at 1000 rpm for 1 min. • (12) The experimental plate was incubated at room temperature for 45 min and centrifuged at 1000 rpm for 1 min before reading. • (13) Plate reading was performed using Envision, with excitation light at 320 nm and emission lights at 620 nm and 665 nm. The derived data were analyzed, and the maximum activation rates Emax and EC50 of the compounds were calculated.

5-HT1A = target: T1, 5-HT1A (Homo sapiens, UniProt P08908); test: In vitro 5HT1A receptor function experiment (cAMP, forskolin-stimulated HEK293/5HT1A cells); format: cell-based; parameters: expressed in transfected cells; host or cells: HEK293; conditions: for EC50: forskolin 1 µM; for Emax: maximum activation rate
T1 sequence (P08908 1-422): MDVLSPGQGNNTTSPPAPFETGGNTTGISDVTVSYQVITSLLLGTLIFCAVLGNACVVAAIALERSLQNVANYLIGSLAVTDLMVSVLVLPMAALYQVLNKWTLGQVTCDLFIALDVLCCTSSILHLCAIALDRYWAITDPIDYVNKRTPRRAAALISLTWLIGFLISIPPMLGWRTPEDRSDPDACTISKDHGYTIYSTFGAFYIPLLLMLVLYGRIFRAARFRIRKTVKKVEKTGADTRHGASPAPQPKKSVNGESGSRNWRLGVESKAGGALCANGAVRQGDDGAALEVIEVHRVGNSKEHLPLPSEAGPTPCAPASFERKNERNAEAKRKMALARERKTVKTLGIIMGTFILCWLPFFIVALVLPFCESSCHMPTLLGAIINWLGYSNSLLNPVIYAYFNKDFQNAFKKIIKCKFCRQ
Procedure: 1.1.1 Cell information: HEK293/5HT1A: a stably transfected cell strain HEK293/5HT1A constructed by adopting 5HT1A receptor lentivirus to infect HEK293; growth culture medium: DMEM, 10% FBS, and 0.6 µg/mL puro; and cryopreservation culture medium: 70% culture medium, 20% FBS, and 10% DMSO.

[2] = In vitro liver microsome stability, CD-1 mouse; conditions: for CLint scaled at 1 µM / microsomal CLint at 1 µM / half-life at 1 µM: CD-1, mouse, liver microsomes, pH 7.4; for CLint(liver): CD-1 mouse liver microsomes
Procedure: (§1) • (1) Buffer preparation: 73.21 g of dipotassium hydrogen phosphate trihydrate and 10.78 g of potassium dihydrogen phosphate were dissolved in 4000 mL of ultrapure water. The pH of the solution was adjusted to within 7.40 ± 0.10 using 10% phosphoric acid or 1 M potassium hydroxide, resulting in a final concentration of 100 mM. • (2) Solution preparation and dilution: Stock solutions of the test compounds at a concentration of 10 mM were prepared in dimethyl sulfoxide (DMSO) and stored at 4 °C, and they were diluted into 100 µM working solutions with pure acetonitrile when used. A stock solution of the control compound testosterone at a concentration of 10 mM was prepared in DMSO and stored at -20 °C, and it was diluted into a 400 µM working solution with pure acetonitrile when used. • (3) Termination solution preparation: The termination solution was acetonitrile containing the internal standard buspirone. The prepared termination solution was stored in a refrigerator at 2-8 °C. • (4) Liver microsome solution preparation: Microsomes from various species (CD-1 mouse, SD rat, and human) were diluted into a 20× working solution using 100 mM potassium phosphate buffer. The final concentration of the microsomes in the reaction system was 0.5 mg/mL. • (5) Reduced nicotinamide adenine dinucleotide phosphate (NADPH) regeneration system preparation: Appropriate amounts of nicotinamide adenine dinucleotide phosphate (NADP), glucose-6-phosphate (G6P), magnesium chloride (MgCl2), and glucose-6-phosphate dehydrogenase (G6PDH) were weighed to prepare stock solutions at concentrations of 65.33 mM, 330 mM, 300 mM, and 250 Units/mL, respectively. The four stock solutions described above were each added to an appropriate amount of buffer, and the mixture was mixed well by gently inverting up and down. […] Several incubation plates were prepared and named T0, T5, T10, T20, T40, T60, PB60, and NCF60, respectively. […] The NCF60 plate was incubated for 60 min with potassium phosphate buffer replacing the NADPH regeneration system solution. The PB60 plate was incubated for 60 min with potassium phosphate buffer replacing the liver microsomes. Samples under all conditions were prepared in triplicate.
(§2) 2 µL of the test compound or control compound and 100 µL of microsome working solution (containing 1 mg/mL liver microsome protein) were added to each of the T0, T5, T10, T20, T40, T60, and NCF60 plates, and 2 µL of the test compound and 100 µL of potassium phosphate buffer were added to the PB60 plate. The plates described above were then pre-incubated in a 37 °C water bath for about 5 min.
(§3) After the pre-incubation, 600 µL of the termination solution was first added to the T0 samples, followed by the addition of 98 µL of NADPH regeneration system working solution. The plate was sealed, shaken, and then allowed to wait for simultaneous processing with subsequent samples. Except for the NCF60 plate where 98 µL of potassium phosphate buffer was added to each sample well, 98 µL of NADPH regeneration system working solution was added to each sample well of the other incubation plates to initiate the reaction. In the reaction system, the final concentrations of the test compound and the control compound were 1 µM and 4 µM, respectively, the concentration of the liver microsomes was 0.5 mg/mL, and the final concentrations of DMSO and acetonitrile were 0.01% (v/v) and 0.99% (v/v), respectively.
(§4) After incubation for an appropriate time (such as 5, 10, 20, 40, and 60 min), 600 µL of the termination solution containing the internal standard was added to each test compound sample and control compound well to terminate the reaction. The plates were sealed, shaken well, and then centrifuged at 4000 ×g and 4 °C for 15 min.

hERG potassium channel = hERG potassium channel (Homo sapiens, UniProt Q12809); test: In vitro hERG experiment (whole-cell patch clamp); format: cell-based; conditions: for hERG inhibition: functional activity lower than that of the pharmacodynamic target: hERG IC50 versus activity at pharmacodynamic target; for IC50: whole-cell patch clamp, tail current, room temperature
Procedure: Extracellular fluid: 140 mM NaCl, 3.5 mM KCl, 1 mM MgCl2, 2 mM CaCl2, 10 mM Glucose, 10 mM HEPES, and 1.25 mM NaH2PO4, with the pH adjusted to 7.4 by NaOH.
Under an inverted microscope, recording electrodes were controlled by a glass electrode micromanipulator (micromanipulation) to contact with the cell. A negative voltage was applied to form a GΩ seal. After forming the GΩ seal, a rapid capacitance compensation was given. Under the continuous negative voltage, the cell membrane was ruptured to establish a whole-cell recording mode. In the whole-cell recording mode, a slow capacitance compensation was given, and the values of membrane capacitance and series resistance were recorded.
Voltage stimulation scheme for cellular hERG potassium current: the cell membrane clamping voltage was -80 mV; the voltage was first elevated from -80 mV to +30 mV, held for 2.5 s, and rapidly changed to and held at -50 mV for 4 s, thus exciting the hERG channel tail current. Data were acquired every 10 s. Leak current detection was performed at -50 mV.
The coverslip with seeded cells was placed in the recording chamber of the inverted microscope. Negative control and test compounds flowed through the recording chamber in an ascending order of concentration by gravity perfusion to quickly act on the cells. During the recording, the extracellular fluid was continuously circulated by a vacuum pump. The current detected in a cell in the negative control was used as the background for the cell. Each compound concentration was allowed to act for 5 min or until the current was stabilized. All experiments were performed at room temperature.
The current of each compound concentration was first normalized according to (peak tail current compound)/(peak tail current vehicle), and then the corresponding inhibition rate was calculated according to (1 - (peak tail current compound)/(peak tail current vehicle)). Basic statistics were calculated for each concentration, including mean, standard deviation (SD), standard error (SE), and replicates (n). […] Curve fitting and calculation of IC50 were performed by GraphPad Prism 5.0 software.

[3] = In vitro liver microsome stability, SD rat; conditions: for CLint(liver): SD rat liver microsomes; for CLint scaled at 1 µM / half-life at 1 µM / microsomal CLint at 1 µM: SD, rat, liver microsomes, pH 7.4
Procedure: as §1, §2, §3, §4

Dopamine D3 receptor = target: T2, Dopamine D3 receptor (Homo sapiens, UniProt P35462); test: In vitro dopamine D3 receptor function experiment (CHO-K1/D3/CRE reporter, chemiluminescence); format: cell-based; conditions: for EC50: forskolin 0.4 µM; for Emax: maximum activation rate
T2 construct: expressed in transfected cells; host or cells: CHO-K1
Procedure: 3.1.1 Cell information: CHO-K1/D3/CRE constructed by referring to the method in Example 5 of CN114369578A.
The first day: cell plating • (1) The cultured cells were digested with trypsin, and after the digestion was terminated with culture medium, the cell suspension was transferred to a centrifuge tube and centrifuged at 750 rpm for 5 min. • (2) The supernatant was discarded, and the pellet was resuspended in an appropriate amount of plating medium.
The following day: experimental detection • (1) The test compounds were diluted to 0.2 mM with DMSO, and the reference compound dopamine was diluted to 0.02 mM. • (2) Compound dilution (4-fold dilution at 8 concentration points) was performed using Bravo, with the starting concentrations of the test compounds and the reference compound being 5 µM and 500 nM, respectively. […] The program selected was an ultrasensitive chemiluminescence detection program.

[4] = In vitro liver microsome stability, human; conditions: for CLint(liver): Human liver microsomes; for CLint scaled at 1 µM / microsomal CLint at 1 µM / half-life at 1 µM: human, liver microsomes, pH 7.4
Procedure: as §1, §2, §3, §4

[5] = 1 mg/kg, 3 mg/kg, and 10 mg/kg, intraperitoneal, single administration, free base

T2 sequence (P35462 whole entry, species assumed): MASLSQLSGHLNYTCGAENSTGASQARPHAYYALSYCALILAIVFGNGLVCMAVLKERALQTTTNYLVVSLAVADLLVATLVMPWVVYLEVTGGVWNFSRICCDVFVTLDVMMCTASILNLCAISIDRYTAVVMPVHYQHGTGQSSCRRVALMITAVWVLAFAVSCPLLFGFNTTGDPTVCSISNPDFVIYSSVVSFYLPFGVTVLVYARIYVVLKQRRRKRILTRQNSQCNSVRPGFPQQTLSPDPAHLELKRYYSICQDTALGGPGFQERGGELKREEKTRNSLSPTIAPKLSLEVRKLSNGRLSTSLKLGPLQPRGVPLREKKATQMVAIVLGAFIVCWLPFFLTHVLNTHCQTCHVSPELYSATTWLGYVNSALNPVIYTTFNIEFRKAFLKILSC
Chain of Dopamine D2L receptor (P14416 whole entry): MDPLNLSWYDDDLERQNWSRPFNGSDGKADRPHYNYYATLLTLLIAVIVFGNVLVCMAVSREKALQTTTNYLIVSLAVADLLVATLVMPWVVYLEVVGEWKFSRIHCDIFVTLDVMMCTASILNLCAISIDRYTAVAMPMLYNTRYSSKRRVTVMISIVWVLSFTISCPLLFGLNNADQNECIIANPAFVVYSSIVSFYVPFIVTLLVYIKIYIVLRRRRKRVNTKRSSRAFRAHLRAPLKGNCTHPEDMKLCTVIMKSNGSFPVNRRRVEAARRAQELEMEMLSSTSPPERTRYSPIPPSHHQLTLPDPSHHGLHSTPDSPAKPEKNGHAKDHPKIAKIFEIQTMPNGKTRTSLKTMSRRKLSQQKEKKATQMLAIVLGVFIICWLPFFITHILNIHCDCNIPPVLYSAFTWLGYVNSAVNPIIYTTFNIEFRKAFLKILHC
Chain of hERG potassium channel (Q12809 whole entry): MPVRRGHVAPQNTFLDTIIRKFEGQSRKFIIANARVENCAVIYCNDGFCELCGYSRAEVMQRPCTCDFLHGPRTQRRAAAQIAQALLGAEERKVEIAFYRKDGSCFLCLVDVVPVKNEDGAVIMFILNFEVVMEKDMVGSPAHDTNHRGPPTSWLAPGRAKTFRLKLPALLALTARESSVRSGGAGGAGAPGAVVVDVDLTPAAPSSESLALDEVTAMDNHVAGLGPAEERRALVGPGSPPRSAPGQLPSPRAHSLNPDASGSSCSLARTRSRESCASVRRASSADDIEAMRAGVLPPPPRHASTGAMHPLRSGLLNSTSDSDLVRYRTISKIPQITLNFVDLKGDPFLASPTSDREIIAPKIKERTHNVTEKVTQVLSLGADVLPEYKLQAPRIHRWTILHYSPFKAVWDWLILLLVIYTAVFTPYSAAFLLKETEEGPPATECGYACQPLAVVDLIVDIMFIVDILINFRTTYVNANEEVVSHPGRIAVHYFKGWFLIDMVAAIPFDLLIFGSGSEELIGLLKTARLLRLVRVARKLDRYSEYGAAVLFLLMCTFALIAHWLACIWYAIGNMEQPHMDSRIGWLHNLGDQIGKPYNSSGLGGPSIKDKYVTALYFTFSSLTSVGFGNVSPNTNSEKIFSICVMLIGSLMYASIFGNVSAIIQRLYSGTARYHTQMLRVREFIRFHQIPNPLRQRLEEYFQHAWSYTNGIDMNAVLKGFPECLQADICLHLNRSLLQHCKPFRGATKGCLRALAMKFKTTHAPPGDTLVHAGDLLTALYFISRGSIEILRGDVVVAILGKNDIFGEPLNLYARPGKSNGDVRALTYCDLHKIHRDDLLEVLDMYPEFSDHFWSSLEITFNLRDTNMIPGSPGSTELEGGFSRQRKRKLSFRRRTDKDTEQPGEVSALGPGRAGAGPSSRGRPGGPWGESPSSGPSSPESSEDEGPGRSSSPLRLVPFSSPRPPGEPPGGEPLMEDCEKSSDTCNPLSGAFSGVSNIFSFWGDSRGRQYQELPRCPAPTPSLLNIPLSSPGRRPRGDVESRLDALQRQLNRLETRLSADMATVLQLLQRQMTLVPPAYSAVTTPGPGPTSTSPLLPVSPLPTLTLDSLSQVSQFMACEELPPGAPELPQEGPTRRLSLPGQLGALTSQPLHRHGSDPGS

Row | EC50 (5-HT1A) [nM] | Emax (5-HT1A) [%] | CLint scaled at 1 µM [2] [mL/min/kg] | microsomal CLint at 1 µM [2] [µL/min/mg] | CLint(liver) [2] [mL/min/K g] | CLint(liver) [3] [mL/min/K g] | CLint scaled at 1 µM [3] [mL/min/kg] | half-life at 1 µM [3] [h] | microsomal CLint at 1 µM [3] [µL/min/mg] | EC50 (Dopamine D3 receptor) [nM] | Emax (Dopamine D3 receptor) [%] | CLint(liver) [4] [mL/min/K g] | CLint scaled at 1 µM [4] [mL/min/kg] | microsomal CLint at 1 µM [4] [µL/min/mg] | half-life at 1 µM [2] [h] | half-life at 1 µM [4] [h] | SMILES | IC50 (hERG potassium channel) | Inhibition of tacrine-induced jaw tremors in rats [1, 5] | Minimum effective dose [1] | further results
1 |  |  |  |  |  |  |  |  |  |  |  |  |  |  |  |  | CCCN(CCc1cccs1)[C@H]1CCc2c(O)cccc2C1 [rotigotine, Rotigotine, reference compound] |  |  |  | Inhibition of tacrine-induced jaw tremors in rats ([1]; 10 mg/kg, positive control): significantly inhibited
2 | 203 | 99.1 |  |  |  |  |  |  |  |  |  |  |  |  |  |  | CCCN(CCN1CCN(c2cccc(Cl)c2Cl)CC1)[C@H]1CCc2nc(N)sc2C1 [Comparative Example 1, (S)-N^6-(2-(4-(2,3-Dichlorophenyl)piperazin-1-yl)ethyl)-N^6-propyl-4,5,6,7-tetrahydrobenzo[d]thiazole-2,6-diamine hydrochloride, reference compound] |  |  |  | EC50 (Dopamine D2L receptor): 0.25 nM; Emax (Dopamine D2L receptor): 101%
3 | 162 | 92.7 | 38.6 to 210 | 12.6 | 50.0 | 27.3 | 23.7 to 129 | 1.52 | 15.2 | 1.1 | 107 | 2.6 | < 8.9 | 2.9 |  |  | CCCN(CC1CCN(C(=O)N2CCOCC2)CC1)[C@H]1CCc2nc(N)sc2C1 [Example 33, (S)-(4-(((2-Amino-4,5,6,7-tetrahydrobenzo[d]thiazol-6-yl)(propyl)amino)methyl)piperidin-1-yl)(morpholino)methanone] | 20000 nM and 20200 nM | significantly inhibited | lower than that of the positive control drug | hERG inhibition: functional activity lower than that of the pharmacodynamic target (hERG potassium channel): ≥ 1000 fold
4 | 25.7 | 102 | 38.6 to 210 | 11.5 | 45.5 | 38.5 | 23.7 to 129 | 1.08 | 21.4 | 1.3 | 120 | 10.3 | 8.9 to 48.3 | 11.5 |  |  | CCCN(CC1CCN(C(=O)N(C)C)CC1)[C@H]1CCc2nc(N)sc2C1 [Example 32, (S)-4-(((2-Amino-4,5,6,7-tetrahydrobenzo[d]thiazol-6-yl)(propyl)amino)methyl)-N,N-dimethylpiperidine-1-carboxamide] | 20000 nM and 17800 nM | significantly inhibited | lower than that of the positive control drug | hERG inhibition: functional activity lower than that of the pharmacodynamic target (hERG potassium channel): ≥ 1000 fold
5 | 203 | 97 |  |  |  |  |  |  |  |  |  |  |  |  |  |  | CCCN(CC1CCN(C(=O)OC)CC1)[C@@H]1CCc2nc(N)sc2C1 (stereo in doubt) [Comparative Example 3, Methyl (R)-4-(((2-amino-4,5,6,7-tetrahydrobenzo[d]thiazol-6-yl)(propyl)amino)methyl)piperidine-1-carboxylate hydrochloride, reference compound] | 5100 nM |  |  | EC50 (Dopamine D2L receptor): 0.95 nM; Emax (Dopamine D2L receptor): 112%
6 | 51.6 | 114 | 38.6 to 210 | 17.4 | 68.8 | 76.9 | 23.7 to 129 | 0.54 | 42.7 | 1.1 | 109 | 27.7 | 8.9 to 48.3 | 30.8 | 1.33 | 0.75 | CCCN(CC1CCN(C(=O)c2ccccc2)CC1)[C@H]1CCc2nc(N)sc2C1 [Example 17, (S)-(4-(((2-Amino-4,5,6,7-tetrahydrobenzo[d]thiazol-6-yl)(propyl)amino)methyl)piperidin-1-yl)(phenyl)methanone] |  |  |  | 
7 | 30.2 | 101 | 38.6 to 210 | 49.1 | 194.5 | 89.1 | 23.7 to 129 | 0.467 | 49.5 | 2.1 | 111 | 33.4 | 8.9 to 48.3 | 37.1 | 0.47 | 0.623 | CCCN(CC1CCN(c2cccc3sccc23)CC1)[C@H]1CCc2nc(N)sc2C1 [Example 9, (S)-N^6-((1-(Benzo[b]thiophen-4-yl)piperidin-4-yl)methyl)-N^6-propyl-4,5,6,7-tetrahydrobenzo[d]thiazole-2,6-diamine] |  |  |  | 
8 | 122 | 103 | < 38.6 | 13.9 | 13.4 | 2.7 | < 23.7 | 14.8 | 2.8 |  |  | 1.0 | < 8.9 | 1.1 | 6.57 | 19.7 | CCCN(CC1CCN(C(=O)c2cnn(C)c2)CC1)[C@H]1CCc2nc(N)sc2C1 [Example 28, (S)-(4-(((2-Amino-4,5,6,7-tetrahydrobenzo[d]thiazol-6-yl)(propyl)amino)methyl)piperidin-1-yl)(1-methyl-1H-pyrazol-4-yl)methanone] | 20000 nM and 23300 nM | significantly inhibited | lower than that of the positive control drug | 

— patent EP4570798A1, “AROMATIC HETEROCYCLIC CYCLOHEXYL AMINOALKYL PIPERIDINE DERIVATIVE, PREPARATION METHOD AND USE THEREOF” (Jiangsu NHWA Pharmaceutical Co., Ltd, priority 2022, dated 2024)
